Experimental data: patent US6355799B1, “Substituted benzene compounds, process for their preparation, and herbicidal and defoliant compositions containing them” (ISK Americas Incorporated, priority 1997, dated 2002)

Assays:
Format in all cases: in vivo
[1] = test system: redroot pigweed (Amaranthus retroflexus, AMARE); test: Pre-emerge test, greenhouse herbicide activity screening; conditions: for Pre-emerge Herbicidal Activity AMARE: phytotoxicity rating 0-100, 14 days after application; for phytotoxicity rating AMARE: pre-emerge, 14 days after application, scale 0-100
Excerpt: (§1) A standard greenhouse herbicide activity screening system was used to evaluate the herbicidal efficacy and crop safety of these test compounds. Seven broadleaf weed species including redroot pigweed (Amaranthus retroflexus, AMARE, velvetleaf (Abutilon theophrasti, ABUTH), sicklepod (Cassia obtusifolia, CASOB), ivyleaf morningglory (Ipomoea hederacea, IPOHE), lambsquarters (Chenopodium album, CHEAL), common ragweed (Ambrosia artemisizfolia L., AMBEL), and cocklebur (Xanthium strumarium, XANST) were used as test species. Four grass weed species including green foxtail (Setaria viridis, SETVI), barnyardgrass (Echinochloa crus-galli, ECHCG), johnsongrass (Sorghum halepense, SORHA), and large crabgrass (Digitaria sanguinalis, DIGSA) were also used. In addition, three crop species, field corn (Zea mays L., var. Dekalb 535, CORN), soybean (Glycine max L., var. Pella 86, SOY), and is upland rice (Oryza sp., var. Tebonnet, RICE) were included.
(§2) All plants were grown in 10 cm square plastic pots which were filled with a sandy loam soil mix. For pre-emerge tests, seeds were planted one day prior to application of the test compounds. For post-emerge tests, seeds were planted 8-21 days prior to the test to allow emergence and good foliage development prior to application of the test substances. At the time of the post-emerge application, plants of all species were usually at the 2-3 leaf stage of development.
All test compounds Were dissolved in acetone and applied to the test units in a volume of 187 l /ha. […] Plants were arranged on a shelf so that the top of the canopy (post-emerge) or top of the soil surface (pre-emerge) was 40-45 cm below the nozzle. Pressurized air was used to force the test solution through the nozzle as it was mechanically advanced (via electrically driven chain drive) over the top of all test plants/pots. This application simulates a typical commercial field herbicide application.
(§3) In the post-emerge test, a commercial non-ionic surfactant was also included (0.25% v/v) to enhance wetting of the leaf surfaces of target plants. Immediately after application, test units of the pre-emerge applications were watered at the soil surface to incorporate the test materials. Subsequently, these test units were bottom-watered. Post-emerge test units were always bottom-watered.
(§4) At 14 days after application of the test materials, phytotoxicity ratings were recorded. A rating scale of 0-100 was used as previously described in Research Methods in Weed Science, 2nd edition, B. Truelove, Ed., Southern Weed Science Society, Auburn University, Auburn, Ala. 1977. Briefly, “0” corresponds to no damage and “100” corresponds to complete death of all plants in the test unit. This scale was used both to determine efficacy against weed species and damage to crop species. Herbicide activity data for various compounds of this invention, which are shown by compound No. in Tables 1-8, are shown in Tables 11 and 12.

[2] = test system: barnyardgrass (Echinochloa crus-galli, ECHCG); test: as above; conditions: for Pre-emerge Herbicidal Activity ECHCG: phytotoxicity rating 0-100, 14 days after application; for phytotoxicity rating ECHCG: pre-emerge, 14 days after application, scale 0-100
Excerpt: as §1, §2
(§5) All test compounds Were dissolved in acetone and applied to the test units in a volume of 187 l /ha. Test materials were applied at rates ranging from 15 g ai/ha to 1000 g ai/ha using a track sprayer equipped with a TJ8001E even flow flat fan spray nozzle. Plants were arranged on a shelf so that the top of the canopy (post-emerge) or top of the soil surface (pre-emerge) was 40-45 cm below the nozzle. Pressurized air was used to force the test solution through the nozzle as it was mechanically advanced (via electrically driven chain drive) over the top of all test plants/pots. This application simulates a typical commercial field herbicide application.
as §3, §4

[3] = test system: green foxtail (Setaria viridis, SETVI); test: as above; conditions: for Pre-emerge Herbicidal Activity SETVI: phytotoxicity rating 0-100, 14 days after application; for phytotoxicity rating SETVI: pre-emerge, 14 days after application, scale 0-100
Excerpt: as §1, §2, §5, §3, §4

[4] = test system: ivyleaf morningglory (Ipomoea hederacea, IPOHE); test: as above; conditions: for Pre-emerge Herbicidal Activity IPOHE: phytotoxicity rating 0-100, 14 days after application; for phytotoxicity rating IPOHE: pre-emerge, 14 days after application, scale 0-100
Excerpt: as §1, §2, §5, §3, §4

[5] = test system: lambsquarters (Chenopodium album, CHEAL); test: as above; conditions: for Pre-emerge Herbicidal Activity CHEAL: phytotoxicity rating 0-100, 14 days after application; for phytotoxicity rating CHEAL: pre-emerge, 14 days after application, scale 0-100
Excerpt: as §1, §2, §5, §3, §4

[6] = test system: large crabgrass (Digitaria sanguinalis, DIGSA); test: as above; conditions: for Pre-emerge Herbicidal Activity DIGSA: phytotoxicity rating 0-100, 14 days after application; for phytotoxicity rating DIGSA: pre-emerge, 14 days after application, scale 0-100
Excerpt: as §1, §2, §5, §3, §4

[7] = test system: sicklepod (Cassia obtusifolia, CASOB); test: as above; conditions: for Pre-emerge Herbicidal Activity CASOB: phytotoxicity rating 0-100, 14 days after application; for phytotoxicity rating CASOB: pre-emerge, 14 days after application, scale 0-100
Excerpt: as §1, §2, §5, §3, §4

[8] = test system: velvetleaf (Abutilon theophrasti, ABUTH); test: as above; conditions: for Pre-emerge Herbicidal Activity ABUTH: phytotoxicity rating 0-100, 14 days after application; for phytotoxicity rating ABUTH: pre-emerge, 14 days after application, scale 0-100
Excerpt: as §1, §2, §5, §3, §4

[9] = test system: field corn (Zea mays L., var. Dekalb 535, CORN); test: Pre-emerge test, crop safety; conditions: for Pre-emerge Herbicidal Activity CORN: crop damage rating 0-100, 14 days after application; for phytotoxicity rating CORN (crop damage): pre-emerge, 14 days after application, scale 0-100
Excerpt: as §1, §2, §5, §3, §4

[10] = test system: upland rice (Oryza sp., var. Tebonnet, RICE); test: Pre-emerge test, crop safety; conditions: for Pre-emerge Herbicidal Activity RICE: crop damage rating 0-100, 14 days after application; for phytotoxicity rating RICE (crop damage): pre-emerge, 14 days after application, scale 0-100
Excerpt: as §1, §2, §5, §3, §4

[11] = test system: barnyardgrass (Echinochloa crus-galli, ECHCG); test: Post-emerge test, greenhouse herbicide activity screening; conditions: post-emerge, 14 days after application, rating scale 0-100
Excerpt: as §1, §2, §5, §3, §4

[12] = test system: green foxtail (Setaria viridis, SETVI); test: as above; conditions: post-emerge, 14 days after application, rating scale 0-100
Excerpt: as §1, §2, §5, §3, §4

[13] = test system: ivyleaf morningglory (Ipomoea hederacea, IPOHE); test: as above; conditions: post-emerge, 14 days after application, rating scale 0-100
Excerpt: as §1, §2, §5, §3, §4

[14] = test system: lambsquarters (Chenopodium album, CHEAL); test: as above; conditions: post-emerge, 14 days after application, rating scale 0-100
Excerpt: as §1, §2, §5, §3, §4

[15] = test system: large crabgrass (Digitaria sanguinalis, DIGSA); test: as above; conditions: post-emerge, 14 days after application, rating scale 0-100
Excerpt: as §1, §2, §5, §3, §4

[16] = test system: redroot pigweed (Amaranthus retroflexus, AMARE); test: as above; conditions: post-emerge, 14 days after application
Excerpt: as §1, §2, §5, §3, §4

[17] = test system: sicklepod (Cassia obtusifolia, CASOB); test: as above; conditions: post-emerge, 14 days after application, rating scale 0-100
Excerpt: as §1, §2, §5, §3, §4

[18] = test system: velvetleaf (Abutilon theophrasti, ABUTH); test: as above; conditions: post-emerge, 14 days after application, rating scale 0-100
Excerpt: as §1, §2, §5, §3, §4

[19] = test system: field corn (Zea mays L., var. Dekalb 535, CORN); test: Post-emerge test, crop safety; conditions: post-emerge, 14 days after application, rating scale 0-100
Excerpt: as §1, §2, §5, §3, §4

[20] = test system: upland rice (Oryza sp., var. Tebonnet, RICE); test: Post-emerge test, crop safety; conditions: post-emerge, 14 days after application, rating scale 0-100
Excerpt: as §1, §2, §5, §3, §4

[21] = 250 g ai/ha, rating scale 0-100

## COc1c(Cl)cc(F)c(-n2c(=O)cc(C(F)(F)F)n(C)c2=O)c1NC(=O)OCc1ccc(OC(F)(F)F)cc1 [4-45]
[1]; 63 g ai/ha
  Pre-emerge Herbicidal Activity AMARE: 30
[1]; 250 g ai/ha
  Pre-emerge Herbicidal Activity AMARE: 100
[2]; 63 g ai/ha
  Pre-emerge Herbicidal Activity ECHCG: 0
[2]; 250 g ai/ha
  Pre-emerge Herbicidal Activity ECHCG: 40
[3]; 63 g ai/ha
  Pre-emerge Herbicidal Activity SETVI: 0
[3]; 250 g ai/ha
  Pre-emerge Herbicidal Activity SETVI: 50
[4]; 63 g ai/ha
  Pre-emerge Herbicidal Activity IPOHE: 10
[4]; 250 g ai/ha
  Pre-emerge Herbicidal Activity IPOHE: 40
[5]; 63 g ai/ha
  Pre-emerge Herbicidal Activity CHEAL: 50
[5]; 250 g ai/ha
  Pre-emerge Herbicidal Activity CHEAL: 95
[6]; 63 g ai/ha
  Pre-emerge Herbicidal Activity DIGSA: 0
[6]; 250 g ai/ha
  Pre-emerge Herbicidal Activity DIGSA: 70
[7]; 63 g ai/ha
  Pre-emerge Herbicidal Activity CASOB: 0
[7]; 250 g ai/ha
  Pre-emerge Herbicidal Activity CASOB: 40
[8]; 63 g ai/ha
  Pre-emerge Herbicidal Activity ABUTH: 50
[8]; 250 g ai/ha
  Pre-emerge Herbicidal Activity ABUTH: 90
[9]; 63 g ai/ha
  Pre-emerge Herbicidal Activity CORN: 0
[9]; 250 g ai/ha
  Pre-emerge Herbicidal Activity CORN: 20
[10]; 63 g ai/ha
  Pre-emerge Herbicidal Activity RICE: 0
[10]; 250 g ai/ha
  Pre-emerge Herbicidal Activity RICE: 10
[11]; 63 g ai/ha
  phytotoxicity rating ECHCG: 20
[11]; 250 g ai/ha
  phytotoxicity rating ECHCG: 20
[12]; 63 g ai/ha
  phytotoxicity rating SETVI: 30
[12]; 250 g ai/ha
  phytotoxicity rating SETVI: 60
[13]; 63 g ai/ha
  phytotoxicity rating IPOHE: 95
[13]; 250 g ai/ha
  phytotoxicity rating IPOHE: 100
[14]; 63 g ai/ha
  phytotoxicity rating CHEAL: 100
[14]; 250 g ai/ha
  phytotoxicity rating CHEAL: 100
[15]; 63 g ai/ha
  phytotoxicity rating DIGSA: 10
[15]; 250 g ai/ha
  phytotoxicity rating DIGSA: 20
[16]; 63 g ai/ha, rating scale 0-100 (0 no damage, 100 complete death)
  phytotoxicity rating AMARE: 90
[16]; [21]
  phytotoxicity rating AMARE: 95
[17]; 63 g ai/ha
  phytotoxicity rating CASOB: 80
[17]; 250 g ai/ha
  phytotoxicity rating CASOB: 80
[18]; 63 g ai/ha
  phytotoxicity rating ABUTH: 100
[18]; 250 g ai/ha
  phytotoxicity rating ABUTH: 100
[19]; 63 g ai/ha
  phytotoxicity rating CORN (crop damage): 10
[19]; 250 g ai/ha
  phytotoxicity rating CORN (crop damage): 20
[20]; 63 g ai/ha
  phytotoxicity rating RICE (crop damage): 10
[20]; 250 g ai/ha
  phytotoxicity rating RICE (crop damage): 20

## COc1c(Cl)cc(F)c(-n2c(=O)cc(C(F)(F)F)n(C)c2=O)c1NC(=O)COc1ccc(Cl)cc1 [2-135]
[1]; 63 g ai/ha
  phytotoxicity rating AMARE: 95
[1]; 250 g ai/ha
  phytotoxicity rating AMARE: 100
[2]; 63 g ai/ha
  phytotoxicity rating ECHCG: 10
[2]; 250 g ai/ha
  phytotoxicity rating ECHCG: 30
[3]; 63 g ai/ha
  phytotoxicity rating SETVI: 80
[3]; 250 g ai/ha
  phytotoxicity rating SETVI: 100
[4]; 63 g ai/ha
  phytotoxicity rating IPOHE: 20
[4]; 250 g ai/ha
  phytotoxicity rating IPOHE: 100
[5]; 63 g ai/ha
  phytotoxicity rating CHEAL: 100
[5]; 250 g ai/ha
  phytotoxicity rating CHEAL: 100
[6]; 63 g ai/ha
  phytotoxicity rating DIGSA: 60
[6]; 250 g ai/ha
  phytotoxicity rating DIGSA: 95
[7]; 63 g ai/ha
  phytotoxicity rating CASOB: 10
[7]; 250 g ai/ha
  phytotoxicity rating CASOB: 60
[8]; 63 g ai/ha
  phytotoxicity rating ABUTH: 90
[8]; 250 g ai/ha
  phytotoxicity rating ABUTH: 100
[9]; 63 g ai/ha
  phytotoxicity rating CORN (crop damage): 0
[9]; 250 g ai/ha
  phytotoxicity rating CORN (crop damage): 0
[10]; 63 g ai/ha
  phytotoxicity rating RICE (crop damage): 0
[10]; 250 g ai/ha
  phytotoxicity rating RICE (crop damage): 35
[11]; 63 g ai/ha
  ECHCG phytotoxicity rating: 0
[11]; 250 g ai/ha
  ECHCG phytotoxicity rating: 20
[12]; 63 g ai/ha
  SETVI phytotoxicity rating: 15
[12]; 250 g ai/ha
  SETVI phytotoxicity rating: 40
[13]; 63 g ai/ha
  IPOHE phytotoxicity rating: 100
[13]; 250 g ai/ha
  IPOHE phytotoxicity rating: 95
[14]; 63 g ai/ha
  CHEAL phytotoxicity rating: 100
[14]; 250 g ai/ha
  CHEAL phytotoxicity rating: 100
[15]; 63 g ai/ha
  DIGSA phytotoxicity rating: 0
[15]; 250 g ai/ha
  DIGSA phytotoxicity rating: 10
[16]; 63 g ai/ha, rating scale 0-100
  AMARE phytotoxicity rating: 100
[16]; [21]
  AMARE phytotoxicity rating: 100
[17]; 63 g ai/ha
  CASOB phytotoxicity rating: 70
[17]; 250 g ai/ha
  CASOB phytotoxicity rating: 100
[18]; 63 g ai/ha
  ABUTH phytotoxicity rating: 100
[18]; 250 g ai/ha
  ABUTH phytotoxicity rating: 100
[19]; 63 g ai/ha
  CORN phytotoxicity rating (crop damage): 10
[19]; 250 g ai/ha
  CORN phytotoxicity rating (crop damage): 25
[20]; 63 g ai/ha
  RICE phytotoxicity rating (crop damage): 20
[20]; 250 g ai/ha
  RICE phytotoxicity rating (crop damage): 40
